The supplement of paper PMC11061612

What was measured:
Test in all cases: combination Emax (second highest fraction inhibited in the dose matrix, 72 h); higher = more inhibition; extreme values may be limits of the assay
[1] = system: KYSE-180 (Esophageal Squamous Cell Carcinoma)
In short: (§1)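 After 24 hours at 37°C and 5% CO2 in 1536-well plates, cells in DMEM/F12 or RPMI plus 10% FBS received two-drug dose matrices for 72 hours. Viability came from CellTiter-Glo 2.0 luminescence and was scaled as inhibition, anchored at 0 by vehicle wells and at 1 by blank wells. Combination Emax is taken as the second-highest inhibition in the matrix, and Bliss excess as the observed combination effect less EA + EB − EA·EB, with EA and EB the single-agent effects.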

MEL-JUSO (Melanoma) = system: MEL-JUSO (Melanoma)
In short: as §1

[2] = system: GR-ST (B-Lymphoblastic Leukemia)
In short: as §1

[3] = system: KARPAS-45 (T-Lymphoblastic Leukemia)
In short: as §1

CHP-212 (Neuroblastoma) = system: CHP-212 (Neuroblastoma)
In short: as §1

[4] = system: KCL-22 (Chronic Myelogenous Leukemia)
In short: as §1

[5] = system: KM12 (Colorectal Carcinoma)
In short: as §1

[6] = system: HDQ-P1 (Breast Carcinoma)
In short: as §1

LN-18 (Glioblastoma) = system: LN-18 (Glioblastoma)
In short: as §1

[7] = system: SW1417 (Colorectal Carcinoma)
In short: as §1

[8] = system: PANC-08-13 (Pancreatic Carcinoma)
In short: as §1

[9] = system: SR (Other Blood Carcinomas)
In short: as §1

ES8 (Ewing's Sarcoma) = system: ES8 (Ewing's Sarcoma)
In short: as §1

[10] = system: MS751 (Cervical Carcinoma)
In short: as §1

NCI-H2818 (Mesothelioma) = system: NCI-H2818 (Mesothelioma)
In short: as §1

[11] = system: BL-41 (Burkitt's Lymphoma)
In short: as §1

[12] = system: L-540 (Hodgkin's Lymphoma)
In short: as §1

[13] = system: BFTC-905 (Bladder Carcinoma)
In short: as §1

[14] = system: SU-DHL-8 (B-Cell Non-Hodgkin's Lymphoma)
In short: as §1

[15] = system: HL-60 (Acute Myeloid Leukemia)
In short: as §1

SMILES | combination Emax [1] | combination Emax (MEL-JUSO (Melanoma)) | combination Emax [2] | combination Emax [3] | combination Emax (CHP-212 (Neuroblastoma)) | combination Emax [4] | combination Emax [5] | combination Emax [6] | combination Emax (LN-18 (Glioblastoma)) | combination Emax [7] | combination Emax [8] | combination Emax [9] | combination Emax (ES8 (Ewing's Sarcoma)) | combination Emax [10] | combination Emax (NCI-H2818 (Mesothelioma)) | combination Emax [11] | combination Emax [12] | combination Emax [13] | combination Emax [14] | combination Emax [15]
COc1cc2c(cc1OCCCCCOc1cc3c(cc1OC)C(=O)N1C=C(C)C[C@H]1C=N3)N=C[C@@H]1CC(C)=CN1C2=O [SG3199] + O=C(c1cc(Cc2n[nH]c(=O)c3ccccc23)ccc1F)N1CCN(C(=O)C2CC2)CC1 [Olaparib] (first compound max 0.001 µM, 7x7, partner max 10 µM) | 0.0586 | 0.0923 | 0.359 | 0.0966 | 0.384 | 0.176 | 0.113 | 0.153 | 0.132 | 0.0642 | 0.101 | 0.445 | 0.828 | 0.176 | 0.161 | 0.107 | 0.32 | 0.152 | 0.55 | 0.133
CC1(C)CCC(CN2CCN(c3ccc(C(=O)NS(=O)(=O)c4ccc(NCC5CCOCC5)c([N+](=O)[O-])c4)c(Oc4cnc5[nH]ccc5c4)c3)CC2)=C(c2ccc(Cl)cc2)C1 [Venetoclax] + CCN(CCO)CCCOc1ccc2c(Nc3cc(CC(=O)Nc4cccc(F)c4)[nH]n3)ncnc2c1 [AZD2811] (first compound max 1 µM, 7x7, partner max 1 µM) | 0.233 | 0.287 | 0.648 | 0.96 | 0.74 | 0.376 | 0.17 | 0.172 | 0.488 | 0.209 | 0.212 | 0.946 | 1 | 0.424 | 0.251 | 0.604 | 0.723 | 0.354 | 0.414 | 0.918
Cc1c2c(nn1C)CSCc1cc(n(C)n1)CSc1cc(c3ccccc3c1)OCCCc1c(C(=O)O)n(C)c3c-2c(Cl)ccc13 [AZD5991] + C[C@@H](Nc1cc(F)cc(F)c1)c1cc(C(=O)N(C)C)cc2c(=O)cc(N3CCOCC3)oc12 [AZD8186] (first compound max 1 µM, 7x7, partner max 3 µM) | 0.877 | 0.527 | 0.257 | 0.99 | 0.882 | 0.87 | 0.205 | 0.237 | 0.573 | 0.275 | 0.263 | 0.954 | 0.613 | 0.851 | 0.387 | 1 | 1 | 0.289 | 0.688 | 1
CC1(C)CCC(CN2CCN(c3ccc(C(=O)NS(=O)(=O)c4ccc(NCC5CCOCC5)c([N+](=O)[O-])c4)c(Oc4cnc5[nH]ccc5c4)c3)CC2)=C(c2ccc(Cl)cc2)C1 [Venetoclax] + Cc1cc2ncnn2cc1Nc1ncc2c(n1)n(C1CCOCC1)c(=O)n2C [AZD7648] (first compound max 1 µM, 7x7, partner max 10 µM) | 0.142 | 0.183 | 0.679 | 0.6 | 0.314 | 0.159 | 0.21 | 0.189 | 0.378 | 0.25 | 0.218 | 0.82 | 0.427 | 0.191 | 0.352 | 0.17 | 0.787 | 0.207 | 0.354 | 0.778
COc1nnc2ccc(N3CCC(c4ccc(OCCN5CCN(C)C(=O)[C@H]5C)cc4)CC3)nn12 [AZD5153] + Cn1cnc2c(F)c(Nc3ccc(Br)cc3Cl)c(C(=O)NOCCO)cc21 [Selumetinib] (first compound max 1 µM, 7x7, partner max 10 µM) | 0.401 | 0.59 | 0.782 | 1 | 0.989 | 0.957 | 0.786 | 0.431 | 0.721 | 0.778 | 0.805 | 0.675 | 0.681 | 0.849 | 0.27 | 0.863 | 0.628 | 0.873 | 0.955 | 0.966
COc1nnc2ccc(N3CCC(c4ccc(OCCN5CCN(C)C(=O)[C@H]5C)cc4)CC3)nn12 [AZD5153] + CCN(CCO)CCCOc1ccc2c(Nc3cc(CC(=O)Nc4cccc(F)c4)[nH]n3)ncnc2c1 [AZD2811] (first compound max 1 µM, 7x7, partner max 1 µM) | 0.397 | 0.37 | 0.818 | 1 | 0.964 | 0.68 | 0.66 | 0.431 | 0.632 | 0.477 | 0.656 | 0.913 | 0.994 | 0.789 | 0.292 | 0.874 | 0.716 | 0.71 | 0.982 | 0.984
CN(C)CCCOc1ccc(-c2ccc3ncc4c(c3c2)n(C2CCOCC2)c(=O)n4C)cn1 [AZD0156] + O=C(c1cc(Cc2n[nH]c(=O)c3ccccc23)ccc1F)N1CCN(C(=O)C2CC2)CC1 [Olaparib] (first compound max 3 µM, partner max 3 µM) | 0.233 | 0.115 | 0.6 | 0.238 | 0.519 | 0.457 | 0.36 | 0.371 | 0.203 | 0.135 | 0.241 | 0.675 | 0.877 | 0.232 | 0.38 | 0.366 | 0.406 | 0.544 | 0.266 | 0.489
CN(CCO)CC[C@H](CSc1ccccc1)Nc1ccc(S(=O)(=O)NC(=O)c2ccc(N3CCC([C@@H](O)c4ccccc4-c4ccc(Cl)cc4)CC3)cc2)cc1S(=O)(=O)C(F)(F)F [AZD4320] + C[C@@H](Nc1cc(F)cc(F)c1)c1cc(C(=O)N(C)C)cc2c(=O)cc(N3CCOCC3)oc12 [AZD8186] (first compound max 1 µM, 7x7, partner max 3 µM) | 0.177 | 0.428 | 0.537 | 1 | 0.752 | 0.33 | 0.315 | 0.787 | 0.555 | 0.707 | 0.481 | 0.713 | 0.99 | 0.3 | 0.365 | 0.745 | 0.668 | 0.851 | 1 | 0.958
COc1nnc2ccc(N3CCC(c4ccc(OCCN5CCN(C)C(=O)[C@H]5C)cc4)CC3)nn12 [AZD5153] + C[C@@H]1COCCN1C2=NC(=NC(=C2)C3(CC3)[S@](=N)(=O)C)C4=C5C=CNC5=NC=C4 [AZD6738] (first compound max 1 µM, 7x7, partner max 10 µM) | 0.591 | 0.502 | 0.846 | 1 | 0.967 | 0.978 | 0.88 | 0.571 | 0.815 | 0.662 | 0.831 | 0.937 | 0.907 | 0.911 | 0.281 | 1 | 0.913 | 0.802 | 0.996 | 0.985
COc1cccc(OCCCN)c1-c1cc(Nc2cnc(C#N)cn2)n[nH]1 [Prexasertib] + CCc1c2c(nc3ccc(O)cc13)-c1cc3c(c(=O)n1C2)COC(=O)[C@]3(O)CC [SN-38] (first compound max 1 µM, 7x7, partner max 0.3 µM) | 1 | 0.707 | 0.871 | 1 | 0.827 | 0.989 | 0.939 | 0.944 | 1 | 0.856 | 0.702 | 0.998 | 0.989 | 0.984 | 0.423 | 1 | 0.95 | 0.983 | 1 | 0.982
C[C@@H]1COCCN1c1cc(C2([S@](C)(=N)=O)CC2)nc(-c2ccnc3[nH]ccc23)n1 [AZD6738] + O=C(c1cc(Cc2n[nH]c(=O)c3ccccc23)ccc1F)N1CCN(C(=O)C2CC2)CC1 [Olaparib] (first compound max 10 µM, 7x7, partner max 10 µM) | 0.76 | 0.418 | 0.803 | 0.832 | 0.795 | 0.909 | 0.615 | 0.512 | 0.877 | 0.38 | 0.313 | 0.97 | 0.895 | 0.395 | 0.45 | 1 | 0.936 | 0.873 | 0.888 | 0.619
CC1(C)CCC(CN2CCN(c3ccc(C(=O)NS(=O)(=O)c4ccc(NCC5CCOCC5)c([N+](=O)[O-])c4)c(Oc4cnc5[nH]ccc5c4)c3)CC2)=C(c2ccc(Cl)cc2)C1 [Venetoclax] + C[C@@H](Nc1cc(F)cc(F)c1)c1cc(C(=O)N(C)C)cc2c(=O)cc(N3CCOCC3)oc12 [AZD8186] (first compound max 1 µM, 7x7, partner max 3 µM) | 0.107 | 0.0937 | 0.633 | 0.833 | 0.314 | 0.299 | 0.0675 | 0.211 | 0.378 | 0.172 | 0.184 | 0.81 | 0.834 | 0.169 | 0.129 | 0.257 | 0.661 | 0.108 | 0.254 | 0.942
